Assay results: patent US9212396B2, “Materials and methods useful for affecting tumor cell growth, migration and invasion” (The Ohio State University, priority 2009, dated 2015)

Columns and labels:
[1] = test system: miR-221 and miR-222; assay: qRT-PCR of miR-221 and miR-222 in GTL16 cells; assay type: cell-based, human; conditions: GTL-16 cells, MET inhibition, compared with the untreated cells
Description: Real-time PCR was performed using a standard TaqMan PCR Kit protocol on an Applied Biosystems 7900HT Sequence Detection System (Applied Biosystems). The 10 μl PCR reaction included 0.67 μl RT product, 1 μl TaqMan Universal PCR Master Mix (Applied Biosystems), […]. The reactions were incubated in a 96-well plate at 95° C. for […], followed by 40 cycles of 95° C. for 15 s and 60° C. for 1 min. All reactions were run in triplicate. The threshold cycle (CT) is defined as the fractional cycle number at which the fluorescence passes the fixed threshold. The comparative CT method for relative quantization of gene expression (Applied Biosystems) was used to determine miRNA expression levels. The y axis represents the 2(-CT), or the relative expression of the different miRs. miRs expression was calculated relative to U44 and U48 rRNA and multiplied by 104. Experiments were carried out in triplicate for each data point, and data analysis was performed by using software (Bio-Rad).

[2] = test system: PTEN and TIMP3; assay: Western blot of PTEN and TIMP3 in GTL16 cells; assay type: cell-based, human; conditions: GTL16 cells treated for 24 h with 4 μM
Description: Total proteins from NSCLC and HCC cells were extracted with radioimmuno-precipitation assay (RIPA) buffer ([…] NaCl, […] Tris-HCl, pH 7.5, 1% Triton, 0.1% SDS, 0.1% sodium deoxycholate and 1% Nonidet P40). Sample extract (50 μg) was resolved on 7.5-12% SDS-polyacrylamide gels (PAGE) using a mini-gel apparatus (Bio-Rad Laboratories) and transferred to Hybond-C extra nitrocellulose. Membranes were blocked for 1 h with 5% nonfat dry milk in Tris-buffered saline containing 0.05% Tween 20, incubated overnight with primary antibody, washed and incubated with secondary antibody, and visualized by chemiluminescence.
The following primary antibodies were used: anti-PTEN, anti-c-Jun, anti-p-c-Jun, anti-Fos, anti-p-JNK, anti-MMP3, anti-Mc1-1 (Santa Cruz), anti-TIMP3 (Millipore) anti-PI3K (BD Biosciences), anti-ERKs, anti-phospho ERKs, anti-AKT, anti-p-AKT, anti-GSK3b, anti-p-GSK3b (Ser9), anti-PAK1 anti-caspase-8,-3 and -9, anti-PARP, anti-cytochrome c (Cell signaling) and anti-MMP9, anti-FADD (Abcam), anti-1-actin antibody (Sigma). A secondary anti-rabbit or anti-mouse immunoglobulin G (IgG) antibody peroxidase conjugate (Chemicon) was used.

[3] = test system: HCC-derived cell lines; assay: Proliferation (MTT) assay on HCC-derived cell lines exposed to TRAIL; assay type: cell-based, human; conditions: TRAIL 400 ng/ml 24 h
Description: Cells were plated in 96-well plates in triplicate and incubated at 37° C. in a 5% CO2 incubator. Super-Killer TRAIL (Alexis Biochemicals) was used for 24-48 h at 400 ng ml-1. Cell viability was examined with 3-(4,5-dimethylthiazol-2-yl)-2,5-dipheniltetrazolium bromide (MTT)-Cell Titer 96 AQueous One Solution Cell Proliferation Assay (Promega), according to the manufacturer's protocol. Metabolically active cells were detected by adding 20 μl of MTT to each well. After 1 h of incubation, the plates were analyzed in a Multilabel Counter (Bio-Rad Laboratories). Apoptosis was assessed using Annexin V-FITC apoptosis detection kits followed by flowcytometric analysis and caspase 3/7 activity. Cells were seeded at 1.8106 cells per 100 mm dish, grown overnight in 10% FBS/RPMI, washed with phosphate-buffered saline (PBS) and then treated for 24 h with 400 ng/ml TRAIL. Following incubation, cells were washed with cold PBS and removed from the plates by trypsinization. […] Statistical analysis was done using two sample t test, assuming equal variance, and P value was calculated based on two-tailed test. For detection of caspase 3/7 activity, cells were cultured in 96-well plates and treated with TRAIL 400 ng/ml and analyzed using Caspase-Glo 3/7 Assay kit (Promega) according to the manufacturer's instructions. Continuous variables are expressed as mean values±standard deviation (s.d.).

[4] = test system: H460 xenograft; assay: H460 xenograft in nude mice treated with TRAIL; assay type: in vivo; conditions: H460 shPTEN and shTIMP3 vs sh control, TRAIL 10 mg/kg/d ip, 35 days
Description: (§1) Animal studies were performed according to institutional guidelines. NCI-H460 cells were stable transfected by using shPTEN and TIMP3 plasmids (Santa Cruz); Calu-1 cells were stable transfected with shMET. After the selection in puromycin for 10 days 5 106 (H460) or 7106 (Calu-1) viable cells were injected s.c. into the right flanks of 6-wk-old male nude mice (Charles RiverBreeding Laboratories, Wilmington, Mass.). Treatment started five days (H460 xenograft) or ten days (Calu-1 xenograft) from tumor cell inoculation by daily ip injections of TRAIL/Apo2 (10 mg/kg/d) or vehicle (PBS) for two cycles of 5 days. Tumor size was assessed every five days by a digital caliper. The tumor volumes were determined by measuring the length (1) and the width (w) and calculating the volume (V=lw2/2). 35 days after injection, mice were sacrificed and tumors samples were analyzed by western blot for PTEN, TIMP3 and MET expression. Statistical significance between control and treated animals was evaluated by using Student's t test. Animal experiments were conducted after approval of the Institutional animal care and use committee, Ohio State University.

[5] = test system: Calu-1 xenograft; assay: Calu-1 xenograft in nude mice treated with TRAIL; assay type: in vivo; conditions: Calu-1 shMET vs sh control, TRAIL 10 mg/kg/d ip
Description: as §1

Molecule: Cc1[nH]c(/C=C2\C(=O)Nc3ccc(S(=O)(=O)N(C)c4cccc(Cl)c4)cc32)c(C)c1C(=O)N1CCN(C)CC1 [SU11274]
- miR-221 and miR-222 downregulated (qRT-PCR) [1]: about 40%
- miR-221 and miR-222 targets (PTEN, TIMP3) expression levels, western blot [2]: increased miR-221 and miR-222 targets expression levels

Molecule: TRAIL
- cell proliferation / TRAIL-induced cell death (MTT) ([3]; HepG2, Sk-Hep1 and Huh 7, low miR-221-miR-222 expression): underwent TRAIL-induced cell death
- cell proliferation / TRAIL-induced cell death (MTT) ([3]; PLC/PRF-5 and Snu-387, high miR-221-miR-222 expression): did not display sensitivity
- tumor engraftment size / TRAIL resistance [4]: increases TRAIL resistance in vivo
- tumor growth / sensitivity to TRAIL [5]: more sensitive to TRAIL inducing apoptosis
